Experimental data taken from EP0516082A2, “Gingerol and gingerdiol derivatives as hypocholesterolemic and antiatherosclerotic agents” (priority 1991, dated 1992).
pIC50: −log10 of the molar value.

Experiments:
[1] = tested on: aortas; test: Antiatherogenic effect in the cholesterol-fed rabbit (Sudan IV stained aortic lesions); assay type: in vivo; conditions: rabbits fed 1% cholesterol chow with 0.5% (w/w) compound for 56 days, n=5
Source text: Feed rabbits with 1% cholesterol (w/w) in standard rabbit chow supplemented with (n=5) or without (n=6) 0.5% anti-[8]-gingerdiol (w/w) for 56 days. Each rabbit consumes 120 grams of food per day. Immediately following sacrifice by intravenous injection of sodium pentobarbital, dissect the aortas from the ascending arch to the […] bifurcation.
Remove extraneous adipose tissue, open the aortas longitudinally and rinse several times with saline. Stain the aortas with Sudan IV and photograph using the method described by Mao et al. [J.Med.Chem. 34, 302 (1991)]. Digitize the areas of sudanophilic lesions in the thoracic region of the aorta with a Magiscan image analysis system. Distinguish stained versus unstained areas on the basis of Sudan Red staining. Quantitate the corresponding lesioned and unlesioned areas accordingly.

[2] = tested on: plasma; test: Inhibition of plasma lipid peroxidation (cupric sulfate induced, thiobarbituric acid assay, method of Yagi et al.); assay type: biochemical; conditions: 0.1 mL of plasma, cupric sulfate 2 mM, 37°C for 2.5 hours or 18 hours; for pIC50: read-out: Plas.Lipid Perox. IC₅₀; for Plas.Lipid Perox. ID₅₀: dose required to inhibit 50% of plasma lipid peroxidation
Method: (§1) Determine the degree of inhibition of LDL and plasma lipid peroxidation by [8]-gingerol and anti-[8]-gingerdiol by the method of Yagi et al. [Vitamins 39, 105 (1968)].
(§2) Incubate a 0.5 mL solution containing 250 micrograms (µg) of LDL or 0.1 mL of plasma with the test compound, in amounts varying from 0 to 250 µg, for 30 minutes at 24°C. To this mixture add 10 µL of a cupric sulfate solution (final concentration 18 µM in LDL assay, 2 mM in plasma assay) and incubate at 37°C for 2.5 hours or 18 hours. Determine the amount of peroxidation of LDL or plasma by the thiobarbituric acid assay. Calculate the dose of test compound required to inhibit 50% of LDL or plasma lipid peroxidation (ID₅₀) and the concentration of test compound required to inhibit 50% of LDL or plasma lipid peroxidation (IC₅₀).

[3] = Effect on serum cholesterol in the cholesterol-fed rabbit; assay type: in vivo
Source text: Feed rabbits with 1% cholesterol (w/w) in standard rabbit chow supplemented with (n=5) or without (n=8) 0.5% anti-[8]-gingerdiol (w/w). Each rabbit consumes 120 grams of food per day. Collect blood samples and determine cholesterol in freshly prepared serum using an enzymatic method described by Mao et al., Clin.Chem 29, 1890 (1983).

[4] = tested on: LDL; test: Inhibition of LDL lipid peroxidation (cupric sulfate induced, thiobarbituric acid assay, method of Yagi et al.); assay type: biochemical; conditions: 250 µg LDL in 0.5 mL, cupric sulfate 18 µM, 37°C for 2.5 hours or 18 hours; for pIC50: read-out: LDL Perox. IC₅₀; for LDL Perox. ID₅₀: dose required to inhibit 50% of LDL peroxidation
Method: as §1, §2

SMILES | % Lesions (±SEM) in Abdominal ([1]; abdominal aorta, control 28 ± 7) [%] | % Lesions (±SEM) in Arch ([1]; aortic arch, control 83 ± 7) [%] | % Lesions (±SEM) in Thoracic ([1]; thoracic aorta, control 62 ± 8) [%] | pIC50 [2] | Plas.Lipid Perox. ID₅₀ [2] [nmol] | Cholesterol (mg/dL±SEM) Day 0 ([3]; Day 0 (baseline), rabbits fed 1% cholesterol chow with 0.5% (w/w) compound, n=5) [mg/dL] | Cholesterol (mg/dL±SEM) Day 10 ([3]; Day 10, rabbits fed 1% cholesterol chow with 0.5% (w/w) compound, n=5, control 790 ± 103) [mg/dL] | Cholesterol (mg/dL±SEM) Day 28 ([3]; Day 28, rabbits fed 1% cholesterol chow with 0.5% (w/w) compound, n=5, control 2177 ± 97) [mg/dL] | pIC50 [4] | LDL Perox. ID₅₀ [4] [nmol]
CCCCCCCC(O)CC(O)CCc1ccc(O)c(OC)c1 (stereo not drawn) [anti-[8]-Gingerdiol, Anti-1-(4'-hydroxy-3'-methoxyphenyl)-3,5-dodecanediol] | 24 ± 10 | 73 ± 12 | 38 ± 16 | 4.78 | 10 | 82 ± 12 | 515 ± 154 | 1615 ± 216 | 4.14 | 40
CCCCCCCC(O)CC(=O)CCc1ccc(O)c(OC)c1 (centres unmarked) [[8]-Gingerol, 1-(4'-Hydroxy-3'-methoxyphenyl)-5-hydroxy-3-dodecanone] | – | – | – | 5.08 | 5 | – | – | – | 3.96 | 60
